# Reference: paper PMC10329651, “ATPase activity of DFCP1 controls selective autophagy” (Nature Communications, 2023)
# T1: DFCP1-FL (Homo sapiens, UniProt Q9HBF4)
# T1 construct: gene ZFYVE1; full length, His6-tagged, Sf9 baculovirus
# T1 sequence (Q9HBF4 1-777): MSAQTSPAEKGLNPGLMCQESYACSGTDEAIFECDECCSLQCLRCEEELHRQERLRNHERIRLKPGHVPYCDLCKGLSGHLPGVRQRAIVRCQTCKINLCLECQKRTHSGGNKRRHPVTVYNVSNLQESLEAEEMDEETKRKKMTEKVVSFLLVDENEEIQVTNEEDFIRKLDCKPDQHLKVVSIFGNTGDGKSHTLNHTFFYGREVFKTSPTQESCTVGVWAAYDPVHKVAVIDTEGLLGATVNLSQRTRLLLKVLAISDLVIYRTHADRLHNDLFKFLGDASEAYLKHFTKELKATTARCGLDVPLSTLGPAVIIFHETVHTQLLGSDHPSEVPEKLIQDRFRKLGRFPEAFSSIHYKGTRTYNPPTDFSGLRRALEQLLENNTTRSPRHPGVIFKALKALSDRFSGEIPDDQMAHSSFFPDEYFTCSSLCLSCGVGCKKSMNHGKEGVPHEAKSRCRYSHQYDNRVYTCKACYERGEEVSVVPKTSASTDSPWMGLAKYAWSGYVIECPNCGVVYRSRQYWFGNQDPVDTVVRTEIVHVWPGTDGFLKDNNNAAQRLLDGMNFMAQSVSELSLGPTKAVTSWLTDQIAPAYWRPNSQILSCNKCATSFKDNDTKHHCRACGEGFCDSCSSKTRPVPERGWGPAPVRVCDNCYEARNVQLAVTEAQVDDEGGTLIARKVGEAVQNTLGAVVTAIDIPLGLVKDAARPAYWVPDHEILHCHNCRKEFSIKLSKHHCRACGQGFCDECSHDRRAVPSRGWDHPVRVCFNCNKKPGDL
# T2: DFCP1 WT (aa 1–410) (Homo sapiens, UniProt Q9HBF4)
# T2 construct: gene ZFYVE1; N-terminal ATPase domain, aa 1-410, His6-MBP fusion (pET-His6-MBP-TEV-LIC, E. coli Rosetta2(DE3))
# T2 sequence (Q9HBF4 1-410): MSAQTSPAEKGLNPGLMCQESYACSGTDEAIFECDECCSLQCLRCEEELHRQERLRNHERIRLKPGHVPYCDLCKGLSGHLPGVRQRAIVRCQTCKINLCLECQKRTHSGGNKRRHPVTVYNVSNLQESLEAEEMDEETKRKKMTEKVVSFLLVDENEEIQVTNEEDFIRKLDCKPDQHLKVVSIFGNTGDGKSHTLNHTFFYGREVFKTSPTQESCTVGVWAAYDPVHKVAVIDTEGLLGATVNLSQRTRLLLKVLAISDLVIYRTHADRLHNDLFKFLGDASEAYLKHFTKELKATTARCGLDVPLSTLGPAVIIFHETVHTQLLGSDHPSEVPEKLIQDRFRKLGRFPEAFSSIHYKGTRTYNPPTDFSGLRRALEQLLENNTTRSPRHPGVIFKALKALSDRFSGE
# B1: His6-MBP-DFCP1 WT (aa 1-410) (domain or fragment, UniProt Q9HBF4 1-410, looked up)
# chain: MSAQTSPAEKGLNPGLMCQESYACSGTDEAIFECDECCSLQCLRCEEELHRQERLRNHERIRLKPGHVPYCDLCKGLSGHLPGVRQRAIVRCQTCKINLCLECQKRTHSGGNKRRHPVTVYNVSNLQESLEAEEMDEETKRKKMTEKVVSFLLVDENEEIQVTNEEDFIRKLDCKPDQHLKVVSIFGNTGDGKSHTLNHTFFYGREVFKTSPTQESCTVGVWAAYDPVHKVAVIDTEGLLGATVNLSQRTRLLLKVLAISDLVIYRTHADRLHNDLFKFLGDASEAYLKHFTKELKATTARCGLDVPLSTLGPAVIIFHETVHTQLLGSDHPSEVPEKLIQDRFRKLGRFPEAFSSIHYKGTRTYNPPTDFSGLRRALEQLLENNTTRSPRHPGVIFKALKALSDRFSGE
# notes: Loaded with ADP or ATPγS before size exclusion chromatography; dimer with ATPγS, monomer with ADP; The vector has a TEV site, but no cleavage is described; also called DFCP1 N-terminus; DFCP1 ATPase domain; not shown: His6, N-terminal, kept; MBP, N-terminal, kept
# Legend:
# [1] = target: T1, DFCP1-FL; test: malachite green phosphate release (Biomol Green); format: biochemical; conditions: 0.5 mM ATP, 10 mM MgCl2, 10 µM ZnCl2, pH 7.5, 37 °C, 30 min; with and without liposomes
# [2] = target: T2, DFCP1 WT (aa 1–410); test: size exclusion chromatography, nucleotide-dependent dimerization; format: binding; conditions: 400 µM nucleotide, 50 mM MgCl2; non-hydrolysable ATP analogue
# [3] = target: the molecule itself; test: SEC; protein loaded with 400 µM ATPγS for 20 min at RT in exchange buffer (50 mM Tris, 150 mM NaCl, 50 mM MgCl2, 10% glycerol, 1 mM TCEP); Superdex 200 Increase 10/300 GL, isocratic elution at 4 °C, 0.25 ml/min; molecular weights relative to a Bio-Rad gel filtration standard
molecule,measurement,setting,value
Nc1ncnc2c1ncn2[C@@H]1O[C@H](COP(=O)(O)OP(=O)(O)OP(=O)(O)O)[C@@H](O)[C@H]1O [ATP],malachite green phosphate release (Biomol Green),[1],"Addition of liposomes to purified full-length DFCP1 resulted in a modest, but significant increase"
Nc1ncnc2c1ncn2[C@@H]1O[C@H](COP(=O)(O)OP(=O)(O)OP(O)(O)=S)[C@@H](O)[C@H]1O [ATPγS],"size exclusion chromatography, nucleotide-dependent dimerization",[2],"ADP-bound DFCP1 migrated as a monomer, ATPγS-loaded DFCP1 migrated as dimer"
B1,stoichiometry N,[3],2
